Experimental data reported in PMC4467461, “Small-molecule activation of SERCA2a SUMOylation for the treatment of heart failure” (Nature Communications, 2015).

Biological target: T1, SUMO E1 SAE1 Q312A mutant (Homo sapiens, UniProt Q9UBE0+Q9UBT2, Q312A)
T1 construct: GST (N); made in house; host or cells: Escherichia coli BL21
T1 sequence (Q9UBE0 1-346 Q312A): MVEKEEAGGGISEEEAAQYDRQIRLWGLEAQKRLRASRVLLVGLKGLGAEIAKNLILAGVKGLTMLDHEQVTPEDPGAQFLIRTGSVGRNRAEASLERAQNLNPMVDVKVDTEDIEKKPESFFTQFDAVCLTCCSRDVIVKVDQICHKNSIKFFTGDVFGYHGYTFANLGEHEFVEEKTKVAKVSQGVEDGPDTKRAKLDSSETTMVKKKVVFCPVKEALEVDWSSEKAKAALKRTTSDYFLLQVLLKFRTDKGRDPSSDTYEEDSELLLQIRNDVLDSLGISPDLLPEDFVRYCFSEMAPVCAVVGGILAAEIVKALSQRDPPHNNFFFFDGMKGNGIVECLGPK
T1 sequence (Q9UBT2 1-640): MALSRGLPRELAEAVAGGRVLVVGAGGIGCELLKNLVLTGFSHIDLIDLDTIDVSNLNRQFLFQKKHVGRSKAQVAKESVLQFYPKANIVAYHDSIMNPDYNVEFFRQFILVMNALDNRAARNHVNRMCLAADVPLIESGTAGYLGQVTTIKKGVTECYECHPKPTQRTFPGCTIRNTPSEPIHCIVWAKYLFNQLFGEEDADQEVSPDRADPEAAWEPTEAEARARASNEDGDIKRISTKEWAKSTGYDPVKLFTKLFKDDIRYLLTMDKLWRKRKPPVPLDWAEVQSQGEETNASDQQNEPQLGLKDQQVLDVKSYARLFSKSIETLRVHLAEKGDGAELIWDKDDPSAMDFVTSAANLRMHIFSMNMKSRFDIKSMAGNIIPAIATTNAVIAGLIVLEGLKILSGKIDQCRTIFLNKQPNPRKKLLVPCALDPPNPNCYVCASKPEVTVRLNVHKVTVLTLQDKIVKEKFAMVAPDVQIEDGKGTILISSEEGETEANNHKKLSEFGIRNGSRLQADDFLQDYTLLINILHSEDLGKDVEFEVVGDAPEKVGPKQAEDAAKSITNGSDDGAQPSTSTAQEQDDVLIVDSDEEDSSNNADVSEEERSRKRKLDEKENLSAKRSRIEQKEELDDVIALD
Experiment: SUMO E1 activity assays with SAE1 Q312A mutant
Assay type: biochemical
Procedure: Figure 3 SUMO-specific activating enzyme, E1, is a direct target of N106. Mechanism of action of N106 on individual steps in the SUMOylation cascade in vitro. (a) Inorganic pyrophosphate resulting from ATP hydrolysis in E1-catalysed SUMO-1 activation in the presence of increasing concentration of N106 compound was assessed by fluorogenic pyrophosphate assay kit. Recombinant human SUMO-specific E1 (0.05 μM), human Ubc9 (0.25 μM), human SUMO-1 (12.5 μM) and ATP (1 mM) were incubated with increasing concentration of N106 for 30 min at 37 °C and quantified using a fluorescence microplate reader. (b) The SAE2-SUMO-1 conjugation was detected followed by western blotting with anti-SAE2 antibodies. SUMO E1 (0.05 μM), SUMO-1 (12.5 μM) and ATP (1 mM) were co-incubated with increasing concentration of N106 for 30 min at 37 °C. The reaction mixtures were separated on 7.5% SDS–PAGE gel under non-reducing conditions. (c) E2-SUMO-1 conjugation was visualized by western blotting with anti-Ubc9 antibody. SUMO E1 (0.05 μM), Ubc9 (0.25 μM), SUMO-1 (12.5 μM) and ATP (1 mM) were incubated without or with increasing concentration of N106 for 30 min at 37 °C. […] (e) ATP hydrolytic activity of WT and mutant SUMO E1 are determined. (f) The E1-SUMO-1 conjugation was detected followed by western blot analysis with anti-SAE2 antibody. *The SAE2-SUMO-1 conjugated bands. […]

Which results are given for `COc1ccc(-c2nnc(Nc3nc4c(OC)cccc4s3)o2)cc1` [Compound N106, N-(4-methoxybenzo[d]thiazol-2-yl)-5-(4-methoxyphenyl)-1,3,4-oxadiazol-2-amine]?
ATP hydrolysis activity with N106, compared with wild-type protein (Q312A mutant): significantly lower; SUMO E1-SUMO and SUMO E2-SUMO conjugations in the presence of N106, compared with WT (Q312A mutant SAE1): weaker
